# Assay results taken from PubChem BioAssay AID1845207 (Molecular Pharmacology Branch, DTP, NCI, 2023).
# Tested on: NCI-H1876 tumor spheroid viability
# Assay: Anticancer human tumor NCI-H1876 cell line growth inhibition;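 further: spheroids exposed to compounds for seven days before the viability read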;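 on viability, T/C: percent of DMSO vehicle control viability so 100% = vehicle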
# Details: spheroids with HUVEC and MSC; for IC50: curve of first compound; for viability, T/C: stronger effect = lower value
# Outline: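 Single agents and combinations were tested on spheroids built from tumor cells plus HUVEC and hMSC, at half-log dilutions starting at or near clinical Cmax, else 10 microM; final DMSO 0.25% (v/v).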
# [1] = second compound 30 pM, first compound 0.00949 µM
# [2] = second compound 30 pM, first compound 0.03 µM
# [3] = second compound 30 pM, first compound 0.0949 µM
# [4] = second compound 30 pM, first compound 0.3 µM
# [5] = second compound 30 pM, first compound 0.949 µM
# [6] = second compound 30 pM, first compound 3 µM
# [7] = second compound 94.9 pM, first compound 0.00949 µM
# [8] = second compound 94.9 pM, first compound 0.03 µM
# [9] = second compound 94.9 pM, first compound 0.0949 µM
# [10] = second compound 94.9 pM, first compound 0.3 µM
# [11] = second compound 94.9 pM, first compound 0.949 µM
# [12] = second compound 94.9 pM, first compound 3 µM
# [13] = second compound 0.0003 µM, first compound 0.00949 µM
# [14] = second compound 0.0003 µM, first compound 0.03 µM
# [15] = second compound 0.0003 µM, first compound 0.0949 µM
# [16] = second compound 0.0003 µM, first compound 0.3 µM
# [17] = second compound 0.0003 µM, first compound 0.949 µM
# [18] = second compound 0.0003 µM, first compound 3 µM
# [19] = second compound 0.000949 µM, first compound 0.00949 µM
# [20] = second compound 0.000949 µM, first compound 0.03 µM
# [21] = second compound 0.000949 µM, first compound 0.0949 µM
# [22] = second compound 0.000949 µM, first compound 0.3 µM
# [23] = second compound 0.000949 µM, first compound 0.949 µM
# [24] = second compound 0.000949 µM, first compound 3 µM
# [25] = second compound 0.003 µM, first compound 0.00949 µM
# [26] = second compound 0.003 µM, first compound 0.03 µM
# [27] = second compound 0.003 µM, first compound 0.0949 µM
# [28] = second compound 0.003 µM, first compound 0.3 µM
# [29] = second compound 0.003 µM, first compound 0.949 µM
# [30] = second compound 0.003 µM, first compound 3 µM
Compound,IC50 (second compound 30 pM) [nM],IC50 (second compound 94.9 pM) [nM],IC50 (second compound 0.0003 µM) [nM],IC50 (second compound 0.000949 µM) [nM],IC50 (second compound 0.003 µM) [nM],"viability, T/C [3] [%]","viability, T/C [4] [%]","viability, T/C [5] [%]","viability, T/C [6] [%]","viability, T/C [9] [%]","viability, T/C [10] [%]","viability, T/C [11] [%]","viability, T/C [12] [%]","viability, T/C [15] [%]","viability, T/C [16] [%]","viability, T/C [17] [%]","viability, T/C [18] [%]","viability, T/C [21] [%]","viability, T/C [22] [%]","viability, T/C [23] [%]",other results
CNCc1ccc(-c2cc(-c3nc(-c4ccc(S(=O)(=O)C(C)C)cc4)cnc3N)on2)cc1 + COc1cc2c(cc1O)CCNC21CSC2c3c(OC(C)=O)c(C)c4c(c3C(COC1=O)N1C(O)C3Cc5cc(C)c(OC)c(O)c5C(C21)N3C)OCO4,571,223,< 9.49,< 9.49,< 9.49,97.8,67.2,36.5,16.2,70.5,42.5,21.2,10.1,16.4,12.7,9.09,6.61,3.12,3.01,4.43,"viability, T/C [1]: 103%; viability, T/C [2]: 103%; viability, T/C [7]: 94.4%; viability, T/C [8]: 89%; viability, T/C [13]: 27.9%; viability, T/C [14]: 24.4%; viability, T/C [19]: 4.01%; viability, T/C [20]: 3.41%; viability, T/C [24]: 2.48%; viability, T/C [25]: 0.56%; viability, T/C [26]: 1.11%; viability, T/C [27]: 1.21%; viability, T/C [28]: 0.84%; viability, T/C [29]: 0.9%; viability, T/C [30]: 0.8%"
Cc1sc2c(c1C)C(c1ccc(Cl)cc1)=NC(CC(=O)Nc1ccc(O)cc1)c1nnc(C)n1-2 (stereo not given) + COc1cc2c(cc1O)CCNC21CSC2c3c(OC(C)=O)c(C)c4c(c3C(COC1=O)N1C(O)C3Cc5cc(C)c(OC)c(O)c5C(C21)N3C)OCO4,265,148,< 9.49,< 9.49,< 9.49,104,43.3,17.1,8.32,60.6,30.8,9.48,5.87,22.7,4.78,2.87,3.05,1.98,2.62,1.67,"viability, T/C [1]: 104%; viability, T/C [2]: 108%; viability, T/C [7]: 100%; viability, T/C [8]: 95.4%; viability, T/C [13]: 29.3%; viability, T/C [14]: 23.2%; viability, T/C [19]: 3.88%; viability, T/C [20]: 2.86%; viability, T/C [24]: 2.3%; viability, T/C [25]: 0.46%; viability, T/C [26]: 0.43%; viability, T/C [27]: 0.51%; viability, T/C [28]: 0.57%; viability, T/C [29]: 0.25%; viability, T/C [30]: 0.65%"
Cn1ncnc1[C@H]1c2n[nH]c(=O)c3cc(F)cc(c23)N[C@@H]1c1ccc(F)cc1 + COc1cc2c(cc1O)CCNC21CSC2c3c(OC(C)=O)c(C)c4c(c3C(COC1=O)N1C(O)C3Cc5cc(C)c(OC)c(O)c5C(C21)N3C)OCO4,35.5,< 9.49,< 9.49,< 9.49,< 9.49,28.6,11.9,6.01,3.44,15.5,7.46,5.44,2.76,5.49,4.25,5.23,2.79,2.85,3.24,2.36,"viability, T/C [1]: 80.3%; viability, T/C [2]: 53.5%; viability, T/C [7]: 47.9%; viability, T/C [8]: 28.1%; viability, T/C [13]: 11.8%; viability, T/C [14]: 7.22%; viability, T/C [19]: 2.86%; viability, T/C [20]: 3.01%; viability, T/C [24]: 1.56%; viability, T/C [25]: 0.64%; viability, T/C [26]: 0.8%; viability, T/C [27]: 0.45%; viability, T/C [28]: 0.68%; viability, T/C [29]: 1.05%; viability, T/C [30]: 0.79%"
O=C(c1cc(Cc2n[nH]c(=O)c3ccccc23)ccc1F)N1CCN(C(=O)C2CC2)CC1 + COc1cc2c(cc1O)CCNC21CSC2c3c(OC(C)=O)c(C)c4c(c3C(COC1=O)N1C(O)C3Cc5cc(C)c(OC)c(O)c5C(C21)N3C)OCO4,3300,1900,< 94.9,< 94.9,< 94.9,99.7,98.4,92.7,53.4,85.8,82.7,70.5,37.2,15.1,16.9,12.9,7.99,2.17,2.25,2.87,"viability, T/C (second compound 30 pM, first compound 9.49 µM): 14.2%; viability, T/C (second compound 30 pM, first compound 30 µM): 9.96%; viability, T/C (second compound 94.9 pM, first compound 9.49 µM): 7.9%; viability, T/C (second compound 94.9 pM, first compound 30 µM): 7.02%; viability, T/C (second compound 0.0003 µM, first compound 9.49 µM): 5.74%; viability, T/C (second compound 0.0003 µM, first compound 30 µM): 4.63%; viability, T/C [24]: 2.49%; viability, T/C (second compound 0.000949 µM, first compound 9.49 µM): 2.27%; viability, T/C (second compound 0.000949 µM, first compound 30 µM): 2.54%; viability, T/C [27]: 6.83%; viability, T/C [28]: 0.52%; viability, T/C [29]: 0.47%; viability, T/C [30]: 0.53%; viability, T/C (second compound 0.003 µM, first compound 9.49 µM): 0.55%; viability, T/C (second compound 0.003 µM, first compound 30 µM): 0.95%"
